The target of experiment [1] is T1, recombinant human HDAC1 (Homo sapiens, UniProt Q13547).
T1 construct: FLAG (C); made in house; host or cells: Hi5 insect cells
The experiment is described as follows: In vitro enzyme assay of recombinant HDAC1 (Test (a)). The experiment is classed as biochemical. Conditions: recombinant human HDAC1 produced in Hi5 insect cells; acetylated histone H4 peptide, Fluor de Lys. On the procedure: HDAC inhibitors were screened against recombinant human HDAC1 produced in Hi5 insect cells. The enzyme was cloned with a FLAG tag at the C-terminal of the gene and affinity purified using Anti-FLAG M2 agarose from SIGMA (A2220).
The deacetylase assays were carried out in a 50 μl reaction. HDAC1 (75 ng of enzyme) diluted in 15 μl of reaction buffer (25 mM TrisHC1 (pH 8), 137 mM NaCl, 2.7 mM KCl, 1 mM MgCl2) was mixed with either buffer alone (10 μl) or buffer containing compound (10 μl for 30 minutes at ambient temperature. 25 μM acetylated histone H4 peptide (KI 174 Biomol) diluted in 25 μl of buffer was then added to the reaction and incubated for one hour at ambient temperature. The reaction was stopped by addition of an equal volume (50 μl) Fluor de Lys developer (Biomol) containing Trichostatin A at 2 μM. The reaction was allowed to develop for 30 minutes at ambient temperature and then fluorescence measured at an excitation wavelength of 360 nm and an emission wavelength of 465 nm. IC50 values for HDAC enzyme inhibitors were determined by performing dose response curves with individual compounds and determining the concentration of inhibitor producing fifty percent decrease in the maximal signal (diluent control). • (b) In Vitro Assay of Inhibition of Proliferation in Whole Cells

In experiment [2] the test system is HCT116 cells. In words: In vitro assay of inhibition of proliferation in whole cells, MTS (Test (b)). The settings on record: Homo sapiens, HCT-116, 72 hours treatment. The experiment is classed as cell-based. As to the method: Inhibition of proliferation in whole cells was assayed using the Promega cell titer 96 aqueous proliferation assay (Promega #G5421). HCT116 cells were seeded in 96 well plates at 1×10^3 cells/well, and allowed to adhere overnight. They were treated with inhibitors for 72 hours. 20 μl of the tetrazolium dye MTS was added to each well and the plates were reincubated for 3 hours. Absorbance was then measured on a 96 well plate reader at […]. The IC50 values for HDAC inhibitors were determined by performing dose response curves with individual compounds and determining the concentration of inhibitor producing fifty percent decrease in maximal signal (diluent control). • (c) In Vitro Enzyme Assay of Histone Deacetylase Activity in Whole Cells

IC50 data for three molecules are collected here from patent US20100075942A1, “N-PHENYL-4-PYRIDIN-2-YL-BENZAMIDE DERIVATIVES AS HISTONE DEACYLASE (HDAC) INHIBITORS FOR THE TREATMENT OF CANCER” (ASTRAZENECA AB, priority 2005, published 2010).

T1 sequence (Q13547 whole entry): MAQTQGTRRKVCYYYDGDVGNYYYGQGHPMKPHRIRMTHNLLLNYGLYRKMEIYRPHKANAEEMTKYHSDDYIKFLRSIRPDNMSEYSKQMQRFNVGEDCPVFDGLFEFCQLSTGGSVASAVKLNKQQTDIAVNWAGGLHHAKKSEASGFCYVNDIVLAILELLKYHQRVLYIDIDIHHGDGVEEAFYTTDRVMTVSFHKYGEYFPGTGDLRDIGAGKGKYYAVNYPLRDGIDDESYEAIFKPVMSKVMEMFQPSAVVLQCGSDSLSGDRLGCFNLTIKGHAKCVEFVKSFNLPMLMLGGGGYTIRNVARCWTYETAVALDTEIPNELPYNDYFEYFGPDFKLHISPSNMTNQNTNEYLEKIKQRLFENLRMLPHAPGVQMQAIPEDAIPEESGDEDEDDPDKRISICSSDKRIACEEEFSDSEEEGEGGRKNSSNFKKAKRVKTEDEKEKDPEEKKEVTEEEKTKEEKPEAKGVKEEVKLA

With `Nc1ccccc1NC(=O)c1ccc(-c2ncc(C(=O)NCCN3CCCC3)cc2Cl)cc1` [5 (1), N-(2-aminophenyl)-4-[3-chloro-5-(N-2-[pyrrolidin-1-yl]ethyl-carbamoyl)-pyridin-2-yl]benzamide], the IC50 (usually the concentration at which inhibition is half-maximal) came out at 9 nM in experiment [1] and 220 nM in experiment [2].

For the molecule `Nc1ccccc1NC(=O)c1ccc(-c2ncc(CNCCN3CCCC3)cc2Cl)cc1` [2 (8), N-(2-aminophenyl)-4-(3-chloro-5-{[(2-pyrrolidin-1-ylethyl)amino]methyl}pyridin-2-yl)benzamide], the values for the IC50 in experiment [1] and in experiment [2] were 16 nM and 400 nM, respectively.

With `CCCCNCc1cnc(-c2ccc(C(=O)Nc3ccccc3N)cc2)c(Cl)c1` [Example 1, N-(2-Aminophenyl)-4-{5-[(butylamino)methyl]-3-chloropyridin-2-yl}benzamide], the IC50 was found to be 9 nM in experiment [1] and 160 nM in experiment [2].
